Consider 2 compounds from ChEMBL document CHEMBL1150256, “Kahalalides V-Y isolated from a Hawaiian collection of the sacoglossan mollusk Elysia rufescens” (2008).

Active and inactive are the calls of the source. The calls are words filed in the database; no cut-off is given here.

In assay [1] the test system is DU-145. In words: Growth inhibition of human DU145 cells. The class given is functional.
In assay [2] the test system is PC-3. In words: Growth inhibition of human PC3 cells. The class given is functional.
The subject of assay [3] is Mus musculus. In words: Antidepressant activity in Swiss Webster mouse at 0 to10 mg/kg, ip by forced swim test. The class given is functional, organism-based.

For the compound `C/C=C1\NC(=O)[C@H](Cc2ccccc2)NC(=O)[C@@H](C(C)C)NC(=O)[C@@H]([C@H](C)CC)NC(=O)[C@H](NC(=O)[C@H](NC(=O)[C@H](CCCN)NC(=O)[C@H]2CCCN2C(=O)[C@H](NC(=O)[C@@H](NC(=O)[C@@H](NC(=O)[C@H](NC(=O)CCCC(C)C)C(C)C)[C@@H](C)O)C(C)C)C(C)C)[C@H](C)CC)[C@H](C)OC(=O)[C@H](C(C)C)NC1=O` [KAHALALIDE F], the “growth inhibition (GI)” value in assay [1] and in assay [2] was 40% in each case. In the case of `CC(C)CCC[C@H]1CC(=O)N[C@H](Cc2c[nH]c3ccccc23)C(=O)N2CCC[C@H]2C(=O)N[C@@H](CCCNC(=N)N)C(=O)O1`, the result in assay [3] was inactive.
